Values quoted from earlier work as cited in patent publication US20200372978A1 (priority 2019, published 2020).

Biological target: T1, PPARγ (Homo sapiens, UniProt P37231)
T1 sequence (P37231 1-505): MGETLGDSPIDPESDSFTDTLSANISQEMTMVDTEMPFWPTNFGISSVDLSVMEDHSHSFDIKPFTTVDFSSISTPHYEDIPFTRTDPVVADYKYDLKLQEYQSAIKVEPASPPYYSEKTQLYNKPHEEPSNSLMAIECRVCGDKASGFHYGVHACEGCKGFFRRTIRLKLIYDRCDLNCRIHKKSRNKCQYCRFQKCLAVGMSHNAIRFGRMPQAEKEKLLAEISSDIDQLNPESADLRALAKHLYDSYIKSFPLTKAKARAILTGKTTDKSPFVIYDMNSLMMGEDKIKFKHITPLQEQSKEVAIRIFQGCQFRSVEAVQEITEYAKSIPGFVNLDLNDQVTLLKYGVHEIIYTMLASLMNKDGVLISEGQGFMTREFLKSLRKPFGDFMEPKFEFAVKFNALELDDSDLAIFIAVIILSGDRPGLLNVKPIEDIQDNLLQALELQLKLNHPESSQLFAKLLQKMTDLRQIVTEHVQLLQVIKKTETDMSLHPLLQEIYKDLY
Settings: of the maximum effect of ROSI

CC(C)COC(=O)c1ccccc1C(=O)OCC(C)C [DiBP]
maximum effect: 25%
